Assay results from patent US6828458B2, “Topical antiandrogen for hair loss and other hyperandrogenic conditions” (Biophysica, Inc., priority 2000, dated 2004).
Read-outs that look alike come from different tables or passages of the source.

Columns and labels:
[1] = Acute oral toxicity in NMRI mice; conditions: mouse, in vivo, probit analysis
Procedure: (§1) Acute oral toxicity of BP-766 was determined in NMRI mice and Wistar rats.

[2] = Biodegradation in human serum, HPLC; assay type: in vitro ADME; conditions: 38° C., 0.5 mg/ml
Procedure: BP-766 was tested for degradation by incubation with human serum at 38° C., at a concentration of 0.5 mg/ml. It would be desirable for safety that should BP-766 for any unexpected reason be resorbed from the skin, it should decompose into rapidly excretable non-toxic components. The only products of biodegradation of BP-766 are the precursor BP-34, and trifluoroacetic acid, which both have good biological tolerance. […] (Permadi, H; Lundgren, B; Andersson K; Sundberg C; DePierre J W. Effects of perfluoro fatty acids on peroxisome proliferation and mitochondrialsize in mouse liver: dose and time factors and effect of chain length. Xenobiotica, (1993) Vol 23, No. 7, pp. 761-70). Orientational toxicity of BP-34 is described further below.

rabbits [3] = experiment: Cutaneous irritation observed daily in rabbits during ten-day topical application; assay type: in vivo, rabbit; conditions: topical twice daily for ten days
Procedure: (§2) BP-766 was applied topically twice daily to simulate the intended human application (0.6 mg/kg-day), on the two 10 cm^2 separate areas of a closely shaved skin of four rabbits, for ten days. One ml blood samples were collected at 2, 5 and 21 hours after the first application, and once every other day thereafter. Serum was analyzed by HPLC. Using spiked and blank serum samples and a linearity determination, the limits of detection of BP-766 and/or BP-34 were established as approximately 10 ng/ml. […] The cutaneous absorption in rabbits is known to be about 5 to 6 times greater than in humans (Marzulic, F. N. and Maibach, H.: Dermatotoxicology, 5th Edition, Taylor & Frasier, Washington, D.C. 1966) so that even with the detection limits of this method, only trace amounts could ever be expected in humans.

mice [4] = experiment: Systemic toxicity by intraperitoneal injections in mice; assay type: in vivo, mouse
Procedure: (§3) The systemic toxicity of BP-766 was orientationally evaluated by multiple intraperitoneal (i.p.) injections in mice. […] […] The murine maximum tolerated dose (MTD) was approximately 300 mg/kg.

[5] = as above; assay type: in vivo, mouse; conditions: mouse, in vivo, ip, i.p. injections, read-out: murine maximum tolerated dose (MTD)
Procedure: as §3

[6] = Accelerated shelf stability of formulated solutions, HPLC; assay type: physicochemical; conditions: for BP-766 remaining: anhydrous isopropanol
Excerpt: (Table 3). […] (Connors, Kenneth A; Amidon, Gordon L.; Stella, Valentino J. Chemical Stability of Pharmaceuticals—A Handbook for Pharmacists. Second Edition, 1986, John Wiley & Sons)

rabbits [7] = experiment: Skin irritation potential according to ISO 10 993-10; assay type: in vivo, rabbit
Procedure: BP-766 was also evaluated by an independent laboratory according to ISO 10 993-10, in rabbits. A single application of 0.5 ml as a 1% (m/v) solution in anhydrous isopropyl alcohol and/or the vehicle only was employed. The application site was covered in one group, and not covered in an other group, each consisting of six rabbits. […] Non-irritability was defined by an arbitrary index, ranging from 0 to 0.4.

Wistar rats = experiment: Acute oral toxicity in Wistar rats; assay type: in vivo, rat; conditions: male and female
Procedure: as §1

[8] = test system: volunteers with incipient androgenic effluvium and/or alopecia; experiment: Topical treatment of volunteers with androgenic effluvium and/or alopecia; assay type: in vivo, human
mice [9] = conditions: cited from earlier work
Androgen Receptor = molecular target: T1, Androgen Receptor (Homo sapiens, UniProt P10275, T878A); experiment: Androgen receptor remaining in LNCaP cells after incubation, Western Blot of lysate; assay type: cell-based; conditions: for Percent Androgen Receptor Remaining in LNCaP Cells: 48 hrs. incubation
T1 construct: endogenous in cells; host or cells: LNCaP cells
T1 sequence (P10275 1-920 T878A): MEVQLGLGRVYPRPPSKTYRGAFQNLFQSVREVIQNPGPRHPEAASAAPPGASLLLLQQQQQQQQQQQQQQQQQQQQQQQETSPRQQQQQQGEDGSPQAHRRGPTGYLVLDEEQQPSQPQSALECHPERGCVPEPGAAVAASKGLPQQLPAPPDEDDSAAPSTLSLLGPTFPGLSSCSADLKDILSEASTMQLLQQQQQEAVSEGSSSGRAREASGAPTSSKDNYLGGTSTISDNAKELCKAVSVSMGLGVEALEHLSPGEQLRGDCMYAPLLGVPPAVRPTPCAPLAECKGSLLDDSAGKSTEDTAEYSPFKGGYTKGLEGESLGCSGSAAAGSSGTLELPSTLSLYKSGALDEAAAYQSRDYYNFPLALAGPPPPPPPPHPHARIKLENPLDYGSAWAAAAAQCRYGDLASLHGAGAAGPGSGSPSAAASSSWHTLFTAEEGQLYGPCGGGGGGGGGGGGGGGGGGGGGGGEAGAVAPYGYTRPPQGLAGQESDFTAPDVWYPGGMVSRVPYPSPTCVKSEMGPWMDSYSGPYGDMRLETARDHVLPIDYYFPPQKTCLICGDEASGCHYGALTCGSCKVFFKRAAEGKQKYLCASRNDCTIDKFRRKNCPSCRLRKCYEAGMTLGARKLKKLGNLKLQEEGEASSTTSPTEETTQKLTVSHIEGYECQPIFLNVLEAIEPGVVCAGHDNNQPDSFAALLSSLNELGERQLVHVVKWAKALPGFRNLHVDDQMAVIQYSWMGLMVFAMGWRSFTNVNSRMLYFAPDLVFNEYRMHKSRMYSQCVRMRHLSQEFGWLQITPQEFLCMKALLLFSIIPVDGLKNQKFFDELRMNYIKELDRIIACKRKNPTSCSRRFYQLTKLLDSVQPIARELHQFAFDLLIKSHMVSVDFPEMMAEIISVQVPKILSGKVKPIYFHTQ
Procedure: The interaction of BP-766 with androgenic receptors was studied by incubation with LNCaP cells, (known to contain human AR), subsequent cell lysis and the Western Blot assay to identify and quantify the androgenic receptors protein.

[10] = Cutaneous absorption in rabbits, serum analyzed by HPLC; assay type: in vivo, rabbit; conditions: BP-766 topical twice daily (0.6 mg/kg-day) for ten days, limit of detection approximately 10 ng/ml
Procedure: as §2

CC(O)(CNC(=O)C(F)(F)F)C(=O)Nc1ccc([N+](=O)[O-])c(C(F)(F)F)c1 (centres unmarked) [BP-766, 2-hydroxy-2-methyl-N-(4-nitro-3-(trifluoromethyl)phenyl)-3-(2,2,2-trifluoroacetylamino)propanamide]
LD50 ([1]; female NMRI mice): 2230 mg/kg
LD50 ([1]; male NMRI mice): 2870 mg/kg
% BP-766 remaining in human serum ([2]; 0 hours): 100%
% BP-766 remaining in human serum ([2]; 6 hours): 54.3%
% BP-766 remaining in human serum ([2]; 24 hours): 10.9%
% BP-766 remaining in human serum ([2]; 48 hours): Traces
signs of cutaneous irritation (rabbits [3]): none was detected
LD50 (daily dose for seven days that resulted in 50% mortality) (mice [4]; i.p., daily for seven days): 450 mg/kg bw
MTD at 7 days [5]: ~300 mg/kg
% BP-766 ([6]; 60/40 EtOH/H2O, 55° C., 0 hours): 100%
% BP-766 ([6]; 60/40 EtOH/H2O, 55° C., 24 hours): 99.1%
% BP-766 ([6]; 60/40 EtOH/H2O, 55° C., 48 hours): 98.2%
% BP-766 ([6]; 60/40 EtOH/H2O, RT, 0 hours): 100%
% BP-766 ([6]; 60/40 EtOH/H2O, RT, 24 hours): 99.9%
% BP-766 ([6]; 60/40 EtOH/H2O, RT, 48 hours): 99.69%
% BP-766 ([6]; Isopropanol (3-5% water), 55° C., 0 hours): 100%
% BP-766 ([6]; Isopropanol (3-5% water), 55° C., 6 hours): 99.6%
% BP-766 ([6]; Isopropanol (3-5% water), 55° C., 24 hours): 99.1%
% BP-766 ([6]; Isopropanol (3-5% water), 55° C., 144 hours): 98.7%
BP-766 remaining ([6]; 0 weeks): 100%
BP-766 remaining ([6]; 1 week): 99.6%
BP-766 remaining ([6]; 2 weeks): 99.4%
BP-766 remaining ([6]; 3 weeks): 99.3%
BP-766 remaining ([6]; 4 weeks): 99.2%
BP-766 remaining ([6]; 5 weeks): 98.9%
BP-766 remaining ([6]; 6 weeks): 98.8%
BP-766 remaining ([6]; 7 weeks): 98.3%
BP-766 remaining ([6]; 8 weeks): 98.4%
skin irritation potential (rabbits [7]): no skin irritation potential was found
LD50 (Wistar rats): greater than 2500 mg/kg body weight
dermal irritation ([8]; six volunteers, 2% solution in anhydrous isopropanol, 1 ml twice daily on the scalp, 8 weeks): no dermal irritation
effluvium of the frontal hairline ([8]; six volunteers, 2% solution, 1 ml twice daily, after 2 weeks): arrested the effluvium of the frontal hairline in all six volunteers
hair regrowth ([8]; two volunteers, after 4 months use): an evident regrowth was observed

O=C(O)C(F)(F)F [trifluoroacetic acid]
toxicity when fed to mice (mice [9]): showed no toxicity

CC(C)(O)C(=O)Nc1ccc([N+](=O)[O-])c(C(F)(F)F)c1 [Hydroxyflutamide, reference compound]
Percent Androgen Receptor Remaining in LNCaP Cells (Androgen Receptor; 3 μ Molar conc.): 98%
Percent Androgen Receptor Remaining in LNCaP Cells (Androgen Receptor; 10 μ Molar conc.): 94%
effect on the androgenic receptors (in words) (Androgen Receptor; any concentration, after 48 hrs.): did not a affect the androgenic receptors significantly

4-nitro-3-trifluoromethyl-N-(2-hydroxy-2-methyl-3-amino [BP-34]
effect on the androgenic receptors (in words) (Androgen Receptor): had no effect on the androgenic receptors
Percent Androgen Receptor Remaining in LNCaP Cells (Androgen Receptor; 3 μ Molar conc.): 97%
Percent Androgen Receptor Remaining in LNCaP Cells (Androgen Receptor; 10 μ Molar conc.): 98%
murine maximum tolerated dose (MTD) (mice [4]; i.p. injections): approximately 250 mg/kg
mortality (mice [4]; i.p. injections of 100-300 mg/kg): no mortalities
morbidity / mortality (mice [4]; i.p., 300 mg/kg): Morbidity, but not mortality, was observed
BP-766 and/or BP-34 found in serum [10]: No BP-766 or BP-34 was found in any of the samples
